Measurements: paper PMC8069016, “Matrix Effects of the Hydroethanolic Extract of Calyces of Physalis peruviana L. on Rutin Pharmacokinetics in Wistar Rats Using Population Modeling” (Pharmaceutics, 2021)
Where two headings read alike, the source gives them in different places. Each block holds one compound with its values, some of them ahead of it.

What was measured:
[1] = Pharmacokinetics of rutin after intravenous administration, non-compartmental analysis; format: in vivo, Wistar rats; settings: for AUC(0-inf) / MRT / half-life / clearance / Vd: male, Wistar, rat, iv; for Vd: read-out: Vdss
Procedure: (§1) The PK studies of rutin, both pure and from the extract of calyces of P. peruviana, were carried out using 50 male Wistar rats (7–11 weeks old and 250–300 g) obtained from the animal facility of the Department of Pharmacy of the Universidad Nacional de Colombia. The animals were kept under constant temperature conditions (22 ± 1 °C), with light/dark cycles of 12 h. They were provided with water and food ad libitum and fasted for 12 h before the assays. This protocol was approved by the ethics committee of the science faculty (Act 06, 2015, project 40831, 22 June 2015).
For intravenous (i.v.) administration, the extract was prepared in sodium chloride solution (0.9% NaCl), vortexed, and sonicated 3–4 times for 15 min. Rutin was first dissolved in DMSO and then diluted in 0.9% NaCl. The clear solutions were administrated via the lateral tail vein of the rats. For the oral route (p.o.) experiments, the extract and rutin were suspended in water close to the time for oral gavage dosing. […] Rutin doses below 1.45 (i.v.) or 75 (p.o.) mg/kg could not show enough quantifiable analytical signals in blood plasma. For the extract, the doses were close to the active ones, according to previous studies by our group.
Samples of the animals’ blood (approximately 250 µL) were taken by puncture in the lateral tail vein and collected in heparinized tubes at times 0, 0.05, 0.166, 0.333, 0.5, 0.75, 1, 1.5, 2, 3, 4, 6, 8, and 12 h for the i.v. experiments and at times 0, 0.083, 0.25, […], 0.75, 1, 2, 3, 4, 6, 8, 10, 12, and 24 h for the p.o. experiments.
Blood plasma aliquots (50 µL) were added to a chrysin standard solution (internal standard (IS)) at a final concentration of 1000 ng/mL. Proteins were precipitated with methanol (1:2 v:v), and clear supernatants were obtained by centrifugation at 1200× g and at 4 °C for 15 min; 6 µL of each aliquot was used for instrumental analyses. Another 50 µL of blood plasma aliquots with the IS were treated with β-glucuronidase/arylsulfatase (120 Fishman units) in order to indirectly quantify the Q3OG and quercetin-3-O-sulfate (Q3OS) present in these samples by conversion into the parent quercetin (deconjugation). The deconjugation reaction was promoted by incubating the samples with the enzymes at pH 5.5 and 37 °C for 30 min. Reactions with the Q3OG standard (10,000 ng/mL) and blank blood plasma were included in each analysis set as positive and negative controls, respectively. After the reaction, proteins were precipitated, as indicated above.
Rutin and quercetin quantification was carried out by UHPLC-UV using a Chromaster RS chromatograph (Hitachi, Tokyo, Japan) and a Kinetex® EVO C18 column (2.6 µm, 100 × 2.1 mm; Phenomenex, Torrance, CA, USA) with an oven setting at 30 °C and a UV detector at 260 nm. The mobile phase consisted of 0.1% formic acid in water (A) and in acetonitrile (B), flowing at 0.5 mL/min in a gradient from 75% A to 65% A up to 9.3 min and 5 min of re-equilibration. The method was validated according to FDA guidelines.
The PK parameters of rutin and quercetin (produced by deconjugation of Q3OG and Q3OS) were first determined by non-compartmental analysis (NCA) using the software program Pkanalix 2019R1 (Lixoft®, Paris, France), set to linear trapezoidal integral mode. The area under the curve to infinity (AUC0-INF), clearance (Cl), volume of distribution at the steady state (Vdss), volume of distribution associated with the terminal phase (Vdz), first-order rate constant of elimination (k), terminal half-life (t1/2), mean residence time (MRT), maximum observed concentration (Cmax), and time of maximum observed concentration (tmax) were determined for the analytes detected for each intervention.

[2] = Pharmacokinetics of quercetin (deconjugated Q3OG and Q3OS) after oral administration, non-compartmental analysis; format: in vivo, Wistar rats; settings: p.o.; only quercetin after deconjugation of Q3OG and Q3OS was measurable
Procedure: as §1
For intravenous (i.v.) administration, the extract was prepared in sodium chloride solution (0.9% NaCl), vortexed, and sonicated 3–4 times for 15 min. Rutin was first dissolved in DMSO and then diluted in 0.9% NaCl. The clear solutions were administrated via the lateral tail vein of the rats. […] Rutin doses below 1.45 (i.v.) or 75 (p.o.) mg/kg could not show enough quantifiable analytical signals in blood plasma. […]
Blood plasma aliquots (50 µL) were added to a chrysin standard solution (internal standard (IS)) at a final concentration of 1000 ng/mL. […] Another 50 µL of blood plasma aliquots with the IS were treated with β-glucuronidase/arylsulfatase (120 Fishman units) in order to indirectly quantify the Q3OG and quercetin-3-O-sulfate (Q3OS) present in these samples by conversion into the parent quercetin (deconjugation). […]

[3] = parameters: method as in doi:10.1016/j.tifs.2017.07.008, PMID 32162346, PMID 30614249; settings: low solubility and low permeability; cited from earlier work
[4] = Population pharmacokinetic modeling of rutin, intravenous administration; format: in vivo, Wistar rats; settings: rutin i.v.; for k12 pop / k21 pop / k pop / V_pop: Table S1
Procedure: Population pharmacokinetic (PopPK) modeling for rutin and quercetin (produced by deconjugation of Q3OG and Q3OS) was performed using the software program Monolix 2019R1 (Lixoft®, Paris, France). One- and two-compartment structural models with first-order elimination were evaluated, and double first-order absorption was included for the oral dosing experiments. Analyses of the categorical covariates (pure rutin, extract, and doses) were performed, and those that were significant were added to the model (p < 0.05 for Pearson’s and Wald tests with stochastic approximation). Correlations between random effects of the parameters were also tested and added to the model, where appropriate (p < 0.05 for t-test). The final model, including the model of the residual error, was selected based on the observation of individual fit plots, Akaike’s information criteria (AIC) values, visual assessment of the observation-versus-prediction plot, the precision of the estimated parameters, and evaluation of the distribution of residuals. The model was internally validated by a visual predictive check (VPC) with 1000 simulated data.
The general model equation for the PK parameters was (2) Pi=Ppop+βcovariate n+ηi,p, where Pi is the individual parameter, Ppop is the population parameter, β is a parameter representing the variability due to the significant covariate n, and η(i,p) is the individual deviation from Ppop. According to the probability distribution of individual parameters, P in the equation could be expressed as logP or logitP (logP/((1 − P)).
Rutin (i.v.) from both sources was better fitted to a two-compartment model described by the following parameters: volume of the central compartment (V), k, and the distribution rate constants k12 and k21 (Figure 3a). The […] differential equations representing this model are expressed in Equations (3) and (4), where X1 and X2 are the amounts of the drug in the central and peripheral compartments, respectively. (3) dX1/dt=k21X2−k12+kX1 (4) dX2/dt=k12X1−k21X2
The population parameters in Table 4 correspond to those of pure rutin (for the dosage set) that was used as a reference in the analysis of covariates. A similarity was noted between the values for Vpop (0.0646 L/kg) and Vdz of pure rutin from the NCA, especially at 2.9 mg/kg (0.068 L/kg). The Clpop parameter, estimated from Vpop and kpop, was equivalent to the Cl of pure rutin from the NCA (in both cases 0.095 L/h/kg for the set of doses). […] Equations (5)–(8) describe the model of covariates, where η is the individual deviation from Ppop. (5) log(V/1−V)=log(Vpop/1−Vpop)+βVGEXT+ηV (6) logk=logkpop+βkGEXT+ηk (7) logk12=logk12pop (8) logk21=logk21pop

[5] = Stability in plasma (bioanalytical method validation); format: in vitro ADME, rats; settings: Wistar, rat; plasma at acidic pH; 2 h at 4 °C, 30 d at −80 °C, and 3 freeze/thaw cycles
Procedure: Rutin and quercetin quantification was carried out by UHPLC-UV using a Chromaster RS chromatograph (Hitachi, Tokyo, Japan) and a Kinetex® EVO C18 column (2.6 µm, 100 × 2.1 mm; Phenomenex, Torrance, CA, USA) with an oven setting at 30 °C and a UV detector at 260 nm. The mobile phase consisted of 0.1% formic acid in water (A) and in acetonitrile (B), flowing at 0.5 mL/min in a gradient from 75% A to 65% A up to 9.3 min and 5 min of re-equilibration. The method was validated according to FDA guidelines. The UHPLC-UV method used for rutin and quercetin quantification in the blood plasma samples was selective and specific for these analytes and for the IS (Figure S2) and met all the criteria of the FDA guidelines. Linearity was described for the equations y = 0.00042x + 0.00910 (r^2 0.9996) and y = 0.00056 − 0.00767 (r^2 0.99980) for rutin and quercetin, respectively, at the concentration range from 100 to 10,000 ng/mL with a 1/x^2 weighting factor. Accuracy and precision were ≥85.6% (as recovery) and ≤7.2% (as variation coefficient), respectively, for both analytes, and these parameters were not affected by dilutions of over-concentrated samples up to 20 times the upper limit of quantification (recovery ≥ 86.3%).

[6] = rutin in plasma, pure rutin i.v. 1.45 mg/kg
[7] = rutin in plasma, pure rutin i.v. 2.9 mg/kg
[8] = run Pure rutin and extract model: final model
[9] = run Pure rutin and extract model: model of covariate 1
[10] = run Pure rutin: one compartment model, first order elimination
[11] = run Pure rutin: selection of model error and final model
[12] = run Pure rutin: two-compartment model, first order elimination
[13] = two-compartment popPK model, pure rutin (dosage set) as reference

Structure (SMILES): C[C@@H]1O[C@@H](OC[C@H]2O[C@@H](Oc3c(-c4ccc(O)c(O)c4)oc4cc(O)cc(O)c4c3=O)[C@H](O)[C@@H](O)[C@@H]2O)[C@H](O)[C@H](O)[C@H]1O [Rutin, quercetin-3-O-rutinoside]
AUC(0-inf) [1, 6]: 14.9 µg·h/mL
MRT [1, 6]: 64.8 ± 10.6 min
half-life [1, 6]: 39.6 ± 7.8 min
clearance ([1]; rutin in plasma, pure rutin i.v. 1.45 mg/kg, read-out: Cl (converted)): 0.1 L/h/kg
Vd [1, 6]: 0.11 ± 0.0306 L/kg
AUC(0-inf) [1, 7]: 33.9 µg·h/mL
MRT [1, 7]: 48.6 ± 3.18 min
half-life [1, 7]: 32.4 ± 3.72 min
clearance ([1]; rutin in plasma, pure rutin i.v. 2.9 mg/kg, read-out: Cl (converted)): 0.09 L/h/kg
Vd [1, 7]: 0.07 ± 0.009 L/kg
clearance ([1]; plasma, rutin i.v., pure rutin, set of doses, read-out: Cl from the NCA (converted)): 0.095 L/h/kg
AUC/dose × 10^−3 [1, 6]: 10,243.52 ± 1743.478 h/L
Vdz [1, 6]: 0.096 ± 0.027 L/kg
k [1, 6]: 1.08 ± 0.195 h⁻¹
AUC/dose × 10^−3 [1, 7]: 11,701.24 ± 992.522 h/L
k [1, 7]: 1.29 ± 0.159 h⁻¹
Vdz ([1]; rutin in plasma, pure rutin i.v. 2.9 mg/kg, 2.9 mg/kg): 0.068 ± 0.012 L/kg
Vdz ([1]; rutin in plasma, pure rutin i.v. 2.9 mg/kg, listed as pure rutin, 2.9 mg/kg): 0.068 L/kg
plasma concentrations of rutin or free quercetin after oral administration [2]: did not allow measurable plasma concentrations of rutin or free quercetin
biopharmaceutical classification system class [3]: class IV
k12 pop [4, 8]: 2.6 h⁻¹
k21 pop [4, 8]: 13.6 h⁻¹
k pop [4, 8]: 1.47 h⁻¹
V_pop [4, 9]: 5.9 e-5
k12 pop [4, 9]: 2.62 h⁻¹
k21 pop [4, 9]: 9.67 h⁻¹
k pop [4, 9]: 1.58 h⁻¹
V_pop [4, 10]: 7.81 e−5
k pop [4, 10]: 1.22 h⁻¹
V_pop [4, 11]: 6.4e -5
k12 pop [4, 11]: 2.5 h⁻¹
k21 pop [4, 11]: 16.8 h⁻¹
k pop [4, 11]: 1.48 h⁻¹
V_pop [4, 12]: 5.89e -5
k12 pop [4, 12]: 5.24 h⁻¹
k21 pop [4, 12]: 19.4 h⁻¹
k pop [4, 12]: 1.61 h⁻¹
Clpop ([4]; estimated from Vpop and kpop, set of doses): 0.095 L/h/kg
Vpop (volume of the central compartment) [4, 13]: 0.0646 L/kg
k12_pop [4, 13]: 2.6 h⁻¹
k21_pop [4, 13]: 13.6 h⁻¹
kpop (first-order rate constant of elimination) [4, 13]: 1.47 h⁻¹

recovery [5]: ≥ 87.8%
Structure (SMILES): O=c1c(O)c(-c2ccc(O)c(O)c2)oc2cc(O)cc(O)c12 [quercetin]
